# Laboratory results: patent US9416126B2, “Compounds inhibiting leucine-rich repeat kinase enzyme activity” (Merck Sharp & Dohme Corp., priority 2013, dated 2016)
# Target: LRRK2(G2019S mutation, GST-LRRK2(amino acids 970-2527)) (Homo sapiens (Human), UniProt Q5S007, G2019S)
# Assay: LRRK2 Km ATP LanthaScreen Assay
# Assay type: biochemical
# Settings: Km ATP (184 μM ATP solution), G2019S LRRK2, mean IC50
# Experimental: Unless otherwise noted, all LRRK2 IC50 data presented in tables refers to the LRRK2 Km ATP LanthaScreen™ Assay that is described in the Biological Assay section.
# The data presented for the 5 mM and Km ATP LanthaScreen™ Assay represents mean IC50 values based on several test results and may have reasonable. deviations depending on the specific conditions and reagents used. Reagents for the LRRK2 5 mM and Km ATP LanthaScreen™ Assay were purchased from Life Technologies Corporation.
# LRRK2 Km ATP LanthaScreen™ Assay
# a) 400 nl of a 1:2.15 serial dilution of test compound(98 μM top assay concentration) is spotted via Labcyte Echo to certain wells in a 384 well black, untreated plate. Control wells contain 400 nl of either DMSO or 400 nl of a known inhibitor in DMSO.
# b) 10 μl of a 2.5 nM LRRK2(G2019S mutation, GST-LRRK2(amino acids 970-2527)) enzyme solution in 1× assay buffer(50 mM Tris pH 8.5, 10 mM MgCl2, 0.01% Brij-35, 1 mM EGTA, 2 mM DTT, 0.05 mM NaVO4) is added to all wells.
# c) A 30 minute room temperature incubation is followed by addition of 10 μl of 800 nM fluorescein labeled LRRKtide peptide substrate and 184 μM ATP solution in 1× assay buffer to all wells.
# d) After a 60 minute room temperature incubation, 20 μl of TR-FRET Dilution Buffer(Invitrogen PV3756B) containing 4 nM Tb-labeled anti-phospho LRRKtide antibody and 20 mM EDTA is added to all wells.
# e) Plates are incubated at room temperature for 1 hour and read on an Envision™ multi-mode plate reader with LanthaScreen™ settings. Results are analysed using Assay Data Analyzer.
# LRRK2(G2019S mutation, GST-LRRK2(amino acids 970-2527)), sequence (Q5S007 970-2527 G2019S): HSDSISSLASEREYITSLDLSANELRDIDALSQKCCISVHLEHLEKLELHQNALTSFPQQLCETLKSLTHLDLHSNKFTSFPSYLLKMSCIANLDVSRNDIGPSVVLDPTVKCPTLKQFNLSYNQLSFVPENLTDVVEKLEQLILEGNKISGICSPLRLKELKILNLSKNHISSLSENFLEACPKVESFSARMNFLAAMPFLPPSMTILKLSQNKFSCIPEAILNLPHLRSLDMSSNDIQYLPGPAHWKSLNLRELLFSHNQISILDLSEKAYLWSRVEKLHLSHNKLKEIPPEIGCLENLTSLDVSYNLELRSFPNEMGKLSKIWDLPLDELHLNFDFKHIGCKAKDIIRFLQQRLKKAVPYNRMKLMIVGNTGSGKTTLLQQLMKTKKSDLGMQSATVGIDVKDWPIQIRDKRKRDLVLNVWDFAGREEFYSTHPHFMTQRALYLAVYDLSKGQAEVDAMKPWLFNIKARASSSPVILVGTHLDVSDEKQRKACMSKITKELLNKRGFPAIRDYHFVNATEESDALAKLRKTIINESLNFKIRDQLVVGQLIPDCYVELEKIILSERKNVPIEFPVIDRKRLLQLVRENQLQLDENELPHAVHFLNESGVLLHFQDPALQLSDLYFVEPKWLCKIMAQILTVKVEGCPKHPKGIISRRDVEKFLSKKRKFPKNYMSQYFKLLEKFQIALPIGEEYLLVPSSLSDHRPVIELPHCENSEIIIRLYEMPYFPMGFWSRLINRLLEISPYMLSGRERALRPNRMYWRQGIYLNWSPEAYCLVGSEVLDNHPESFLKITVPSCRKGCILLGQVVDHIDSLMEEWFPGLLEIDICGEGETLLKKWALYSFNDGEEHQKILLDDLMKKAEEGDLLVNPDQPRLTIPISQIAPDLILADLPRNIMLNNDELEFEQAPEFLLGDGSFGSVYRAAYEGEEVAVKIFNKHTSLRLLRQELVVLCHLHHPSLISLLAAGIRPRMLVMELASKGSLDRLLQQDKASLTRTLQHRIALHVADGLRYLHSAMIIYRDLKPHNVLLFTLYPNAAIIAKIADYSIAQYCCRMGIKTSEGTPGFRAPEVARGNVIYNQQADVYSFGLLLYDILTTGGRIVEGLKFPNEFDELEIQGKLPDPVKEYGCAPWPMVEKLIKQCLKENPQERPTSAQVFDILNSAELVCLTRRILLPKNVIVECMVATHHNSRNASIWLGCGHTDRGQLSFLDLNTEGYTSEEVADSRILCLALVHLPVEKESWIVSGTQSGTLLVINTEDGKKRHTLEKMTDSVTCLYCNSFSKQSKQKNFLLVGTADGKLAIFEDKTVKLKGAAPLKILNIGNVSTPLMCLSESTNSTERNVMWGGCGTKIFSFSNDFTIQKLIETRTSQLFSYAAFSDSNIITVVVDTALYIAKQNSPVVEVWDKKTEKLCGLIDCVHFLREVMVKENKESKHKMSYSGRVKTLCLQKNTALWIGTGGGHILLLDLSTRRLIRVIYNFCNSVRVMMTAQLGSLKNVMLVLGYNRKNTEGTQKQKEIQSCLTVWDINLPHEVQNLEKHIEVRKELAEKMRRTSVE
row,Compound,IC50 [nM]
1,CC(C)Oc1ccc2[nH]nc(-c3cc(N4CCc5oc(C6CC6)nc5C4)ncn3)c2c1 [Example J14],30.1
2,CC(C)Oc1ccc2[nH]nc(-c3cc(N4CCC(F)(F)CC4)ncn3)c2c1 [Example J15],20.2
3,CC(C)Oc1ccc2[nH]nc(-c3cc(N4CC(S(C)(=O)=O)C4)ncn3)c2c1 [Example J16],13.3
4,CC(C)Oc1ccc2[nH]nc(-c3cc(N4CCN(C)CC4)ncn3)c2c1 [Example J17],5.4
5,CC(C)Oc1ccc2[nH]nc(-c3cc(N4CC(F)(F)C4)ncn3)c2c1 [Example J18],24.3
6,CCc1nnc2n1CCN(c1cc(-c3n[nH]c4ccc(OC(C)C)cc34)ncn1)C2 [Example J19],8.6
7,CC(C)Oc1ccc2[nH]nc(-c3cc(N4CCc5nc(C6CC6)oc5C4)ncn3)c2c1 [Example J20],43
8,CC(C)Oc1ccc2[nH]nc(-c3cc(N4CCN(c5nnc(C6CC6)o5)CC4)ncn3)c2c1 [Example J21],14
9,Cc1noc(C2CN(c3cc(-c4n[nH]c5ccc(OC(C)C)cc45)ncn3)C2)n1 [Example J22],9.3
10,CC(C)Oc1ccc2[nH]nc(-c3cc(N4CC(n5cnnc5)C4)ncn3)c2c1 [Example J23],20.1
11,CC(C)Oc1ccc2[nH]nc(-c3cc(N4CCN(c5ccncn5)CC4)ncn3)c2c1 [Example J24],15.8
12,CC(C)Oc1ccc2[nH]nc(-c3cc(N4CC[C@@H](F)C4)ncn3)c2c1 [Example J25],8.7
13,CC(C)Oc1ccc2[nH]nc(-c3cc(N4CC[C@H](F)C4)ncn3)c2c1 [Example J26],9.5
14,CC(C)NC(=O)CN1CCN(c2cc(-c3n[nH]c4ccc(OC(C)C)cc34)ncn2)CC1 [Example K1],5.1
15,CC(C)Oc1ccc2[nH]nc(-c3cc(N4CCN(C(=O)c5ccco5)CC4)ncn3)c2c1 [Example K2],8.7
16,CCN1CCN(c2cc(-c3n[nH]c4ccc(OC(C)C)cc34)ncn2)CC1 [Example K3],6
17,COC1CCCN(c2cc(-c3n[nH]c4ccc(OC(C)C)cc34)ncn2)C1 (stereo not shown) [Example K4],12.7
18,CC(=O)N1CCN(c2cc(-c3n[nH]c4ccc(OC(C)C)cc34)ncn2)CC1 [Example K5],11.2
19,CC(C)Oc1ccc2[nH]nc(-c3cc(N4CCN(C(=O)C5CCCO5)CC4)ncn3)c2c1 (stereo not shown) [Example K6],58.1
20,CC(C)Oc1ccc2[nH]nc(-c3cc(N4CCN(c5ncccn5)CC4)ncn3)c2c1 [Example K7],11.8

row,Compound,IC50 [nM]
1,CC(C)Oc1ccc2[nH]nc(-c3cc(N4CCC(C#N)CC4)ncn3)c2c1 [Example K8],7.2
2,COC(=O)N1CCN(c2cc(-c3n[nH]c4ccc(OC(C)C)cc34)ncn2)CC1 [Example K9],10.2
3,CC(C)Oc1ccc2[nH]nc(-c3cc(N4CCC(n5ccnc5)C4)ncn3)c2c1 (stereo not shown) [Example K11],11.3
4,CC(C)Oc1ccc2[nH]nc(-c3cc(N4CCC(O)(C(F)(F)F)CC4)ncn3)c2c1 [Example K12],10.5
5,CC(C)Oc1ccc2[nH]nc(-c3cc(N4CCCC(C(C)(C)O)C4)ncn3)c2c1 (stereo not shown) [Example K13],6.9
6,CC(C)Oc1ccc2[nH]nc(-c3cc(N4CCC(n5cccn5)CC4)ncn3)c2c1 [Example K14],15.3
7,CC(C)Oc1ccc2[nH]nc(-c3cc(N4CCC(CF)C4)ncn3)c2c1 (stereo not shown) [Example K15],6.9
8,CC(C)Oc1ccc2[nH]nc(-c3cc(N4CCN(Cc5ccncc5)CC4)ncn3)c2c1 [Example K16],8.2
9,CC(C)Oc1ccc2[nH]nc(-c3cc(N4CCN(c5cnn(C)c5)CC4)ncn3)c2c1 [Example K17],5.4
10,CC(C)Oc1ccc2[nH]nc(-c3cc(N4CCC(C(C)(C)O)CC4)ncn3)c2c1 [Example K18],5.4
11,CC(C)Oc1ccc2[nH]nc(-c3cc(N4CCn5nc(C6CC6)nc5C4)ncn3)c2c1 [Example K19],18.2
12,CC(C)Oc1ccc2[nH]nc(-c3cc(N4CCC(F)(CO)CC4)ncn3)c2c1 [Example K20],6.3
13,CC(C)Oc1ccc2[nH]nc(-c3cc(N4CCN(c5nncs5)CC4)ncn3)c2c1 [Example K21],17
14,Cn1cc(-c2cc3c(-c4cc(N5CCn6ncnc6C5)ncn4)n[nH]c3cc2F)cn1 [Example L1],63.9
15,Cn1cc(-c2cc3c(-c4cc(N5CC[C@H](CF)C5)ncn4)n[nH]c3cc2F)cn1 [Example L2],13.6
16,Cn1cc(-c2cc3c(-c4cc(N5CCCC(F)(F)C5)ncn4)n[nH]c3cc2F)cn1 [Example L3],23.4
17,Cn1cc(-c2cc3c(-c4cc(N5CC[C@@H](CO)C5)ncn4)n[nH]c3cc2F)cn1 [Example L4],36.8
18,Cn1cc(-c2cc3c(-c4cc(N5CC[C@H](CO)C5)ncn4)n[nH]c3cc2F)cn1 [Example L5],37
19,Cn1cc(-c2cc3c(-c4cc(N5CCC(F)(F)C5)ncn4)n[nH]c3cc2F)cn1 [Example L6],70.9
20,Cn1cc(-c2cc3c(-c4cc(N5CCCC(C)(O)C5)ncn4)n[nH]c3cc2F)cn1 (stereo not shown) [Example L7],67.5

row,Compound,IC50 [nM]
1,Cn1cc(-c2cc3c(-c4cc(N5CC[S+]([O-])CC5)ncn4)n[nH]c3cc2F)cn1 [Example L8],131
2,CN1CCN(c2cc(-c3n[nH]c4cc(F)c(-c5cnn(C)c5)cc34)ncn2)CC1=O [Example L9],37.7
3,Cn1cc(-c2cc3c(-c4cc(N5CCc6oncc6C5)ncn4)n[nH]c3cc2F)cn1 [Example L10],453
4,Cn1cc(-c2cc3c(-c4cc(N5CCN(C6CC6)CC5)ncn4)n[nH]c3cc2F)cn1 [Example L11],17.7
5,C[C@H]1CN(c2cc(-c3n[nH]c4cc(F)c(-c5cnn(C)c5)cc34)ncn2)CCO1 [Example L12],26.5
6,C[C@@H]1CN(c2cc(-c3n[nH]c4cc(F)c(-c5cnn(C)c5)cc34)ncn2)CCO1 [Example L13],20.5
7,Cn1cc(-c2cc3c(-c4cc(N5C[C@@H](F)[C@H](F)C5)ncn4)n[nH]c3cc2F)cn1 [Example L14],29.9
8,Cn1cc(-c2cc3c(-c4cc(N5CCCC6(CCO6)C5)ncn4)n[nH]c3cc2F)cn1 (stereo not shown) [Example L15],398
9,Cn1cc(-c2cc3c(-c4cc(N5CCC(n6cccn6)C5)ncn4)n[nH]c3cc2F)cn1 (stereo not shown) [Example L16],73.5
10,Cc1nc2c(o1)CCN(c1cc(-c3n[nH]c4cc(F)c(-c5cnn(C)c5)cc34)ncn1)C2 [Example L17],53.4
11,Cn1cc(-c2cc3c(-c4cc(N5CCN6C(=O)OCC6C5)ncn4)n[nH]c3cc2F)cn1 (stereo not shown) [Example L18],64.2
12,Cn1cc(-c2cc3c(-c4cc(N5CCC(F)(C#N)CC5)ncn4)n[nH]c3cc2F)cn1 [Example L19],39.4
13,CO[C@@H]1CN(c2cc(-c3n[nH]c4cc(F)c(-c5cnn(C)c5)cc34)ncn2)C[C@H]1O [Example L20],36.2
14,CN(C)[C@@H]1CN(c2cc(-c3n[nH]c4cc(F)c(-c5cnn(C)c5)cc34)ncn2)C[C@H]1O [Example L21],67.1
15,Cn1cc(-c2cc3c(-c4cc(N5CCS(=O)(=O)CC5)ncn4)n[nH]c3cc2F)cn1 [Example L22],146
16,Cn1cc(-c2cc3c(-c4cc(N5CCC(F)(CO)CC5)ncn4)n[nH]c3cc2F)cn1 [Example L23],15.3
17,CN(C)[C@@H]1CCN(c2cc(-c3n[nH]c4cc(F)c(-c5cnn(C)c5)cc34)ncn2)C1 [Example L24],58
18,Cn1cc(-c2cc3c(-c4cc(N5CCN(CCCO)CC5)ncn4)n[nH]c3cc2F)cn1 [Example L25],12.6
